Test results published in US6462086B1, “Non-malignant disease treatment with Ras antagonists” (Ramot University Authority for Applied Research and …, priority 1999, dated 2002).
“Also recorded” adds a separate entry of the source.

Tests used:
[1] = tested on: lymphocytes from naive SJL mice; experiment: ConA- and LPS-induced proliferation of lymphocytes from naive SJL mice in vitro (3H-thymidine); assay type: cell-based; details: Mus musculus, Lymphocyte, 48 h stimulation
lymphocytes of EAE mice = experiment: In vitro mitogenic response (LPS, PLP 139-151 peptide) of lymph node lymphocytes of EAE mice; assay type: cell-based, mouse; details: 25 microM FTS; lymphocytes of EAE mice day 10
[2] = tested on: lymphocytes from draining lymph nodes of EAE SJL mice; experiment: Ex vivo proliferative responses of lymph node lymphocytes from FTS-treated EAE mice; assay type: in vivo, mouse; details: for proliferative response of lymphocytes (cpm): FTS 5 mg/Kg i.p. daily, day 10
[3] = tested on: lymphocyte surface markers (CD3, CD4, CD8, IA-k, Vb17, CD62L); experiment: FACS analysis of surface markers on lymph node lymphocytes of EAE mice; assay type: in vivo, mouse; details: percentages of positively stained cells among 10,000; EAE mice + FTS, day 10
Method: Single cell suspensions were prepared from the draining lymph nodes of mice in which EAE was induced, on day 10 post immunization for EAE-induction. Cells were incubated on ice, for 30 min with 20 μl of the monoclonal FITC-conjugated anti-CD62L, anti-IA-k ([…]) and anti-Vb17 antibodies (Becton and Dickinson, USA). The proportions of cells expressing these surface markers were examined by a fluoresecence activated cell sorter (FACS), and were calculated as the percentages of positively stained cells among 10,000 cells enumerated.

CR-EAE in SJL/J mice = experiment: Chronic-relapsing EAE (CR-EAE) by transfer of PLP-sensitized lymphocytes, clinical signs; assay type: in vivo, mouse
MRL/lpr mice [4] = experiment: Lymphadenopathy and splenomegaly in MRL mice; assay type: in vivo, mouse
Method: The development of generalized lymphadenopathy in the MRL/lpr mice (saline and FTS-treated) was evaluated by palpation of axillary and inguinal lymph nodes. The maximal lymph nodes score in each mouse was 4, when both axillary and inguinal lymph nodes (in both sides) were palpable. At 18 weeks of age the mice were sacrificed and the spleens and lymph nodes (axillary, inguinal and cervical) were removed and weighed.

MRL/lpr and MRL/++ mice = assay type: in vivo; details: FTS 5 mg/Kg/day
Method: FTS was synthesized as previously described (13). FTS was stored in chloroform, which was evaporated under a stream of nitrogen immediately before use. The powder was dissolved in absolute ethanol and diluted to the desired concentration in sterile saline made basic with NaOH. 200 μl of carrier solution containing 100 μg of FTS (5 mg/kg) were injected intraperitoneally (i.p.) into each mouse. Control solution was prepared at the same time starting with a chloroform solution.
Mice were treated once a day, 3-5 times a week starting from 6 or 10 weeks of age until 18 weeks of age.
Proteinuria was normalized in FTS-treated MRL/lpr mice as were grip strength and certain aspects of behavior in the open field.

MRL/lpr mice [5] = experiment: Disease activity in MRL/lpr mice (proteinuria, lymphadenopathy, grip strength; Example 4); assay type: in vivo, mouse
Method: One of the important measures of disease activity in MRL/lpr mice is proteinuria. Levels of proteinura were measured weekly by means of dip-sticks in MRL/lpr and Mrl/++ mice treated daily with FTS or with vehicle alone. Significant proteinuria developed in the MRL/lpr treated with vehicle compared to the MRL/++ groups. […] Other systemic measures of disease activity including lymphadenopathy and lymphocyte proliferation were normalized in FTS treated MRL/lpr mice (not shown).

[6] = tested on: TAA-induced liver cirrhosis in Wistar rats; experiment: Thioacetamide (TAA)-induced liver cirrhosis in rats, liver histopathology; assay type: in vivo, rat
Method: Liver cirrhosis was induced in rats by intraperitoneal (i.p.) administration of TAA 200 mg/kg twice weekly for 12 weeks, as previously described (1, 2).
The FTS was dissolved in PBS and administered i.p. 3 times a week to rats according to their assigned groups. Four groups containing 6 rats each were treated as follows. One group received TAA 200 mg/kg i.p. twice a week and i.p. injections of PBS 3 days a week for 12 weeks (cirrhotic controls for the FTS-treated groups). A second group received TAA for 12 weeks and FTS 5 mg/kg, 3 times a week. […] The two control groups consisted of one that received PBS injections without TAA for 12 weeks (normal controls) and a group of 5 rats that received only FTS 5 mg/kg i.p. for 12 weeks to monitor the appearance of adverse effects.
The rats were sacrificed at the completion of the treatment protocols. Their livers were removed and midsections of the left lobes of the livers were processed for light microscopy. This processing consisted of fixing the specimens in a 5% neutral formol solution, embedding the specimens in paraffin, making sections of 5 μm thickness, and staining the sections with hematoxylin and eosin. Reticulin stain was performed to enhance the visualization of the extent and distribution of liver fibrosis. The tissue slices were scanned and scored by two expert pathologists who were not aware of the sample source. The degree of inflammation and fibrosis was expressed as the mean of 10 different fields in each slide that had been classified on a scale of 0-3 according to Muller, et al(3).

[7] = tested on: TAA-induced acute liver injury in rats; experiment: TAA-induced acute liver damage in FTS-pretreated rats; assay type: in vivo, rat; details: TAA + FTS 5 mg/kg daily from 3 days before TAA; 52 h; Mean ± SD, n = 5
Method: To exclude the possibility that the effect of FTS on hepatic fibrosis is due to anti-inflammatory rather than anti fibrotic activity, acute liver damage was induced by TAA (3 injections of 400 mg/kg, i.p.) in a separate group of FTS-pretreated rats. Blood was drawn 52 h after the first TAA injection for the measurement of serum levels of hepatic enzymes and blood ammonia, and liver tissue was […]. TAA was administered in 3 consecutive injections of 400 mg/kg, i.p. in 24 h intervals. Serum levels of liver enzymes, blood ammonia and liver histology were determined 52 h after the first TAA injection. FTS administration (5 mg/kg daily), was started 3 days prior to the first TAA injection.

[8] = FTS-treated mice compared to controls
[9] = FTS 5 mg/kg alone, 12 weeks, no TAA
[10] = TAA + FTS 5 mg/kg 3 times/week for 12 weeks

Q: Which inhibition at 12.5 µM ([1]; 12.5 μM FTS) does the source give for CC(C)=CCC/C(C)=C/CC/C(C)=C/CSc1ccccc1C(=O)O [FTS, farnesyl thiosalicylic acid] here?
A: Its inhibition at 12.5 µM is 22 to 50%.

Q: And the inhibition at 25 µM ([1]; 25 μM FTS)?
A: The inhibition at 25 µM was 66 to 71%.

Q: What about the inhibition at 50 µM ([1]; 50 μM FTS) of the same compound?
A: Its inhibition at 50 µM is 95 to 98%.

Q: And the “suppression of the LPS mitogenic response” value (lymphocytes of EAE mice)?
A: Its value is 91%.

Q: And the “suppression of the PLP mitogenic response” value (lymphocytes of EAE mice)?
A: Its value is 62%.

Q: And the “change of reactivity to ConA” value [2, 8]?
A: The value was “no change of reactivity”.

Q: And the “decrease in the reactivity of lymphocytes to GMBP” value [2, 8]?
A: The value was 83%.

Q: What about the “decrease in the reactivity of lymphocytes to PLP-peptide” value [2, 8] of the same compound?
A: Its value is 72%.

Q: And the “decrease of the reactivity to PPD and to LPS” value [2, 8]?
A: Its value is 50-57%.

Q: What about the “proliferative response of lymphocytes (cpm)” value (“proliferative response” for short) ([2]; antigen: GMBP) of the same compound?
A: Its value is 7,864 ± 636 cpm.

Q: And the “stimulation index (S.I.)” value ([2]; antigen: GMBP, FTS-treated EAE mice)?
A: The value was 1.8.

Q: And the “proliferative response” value ([2]; antigen: PLP)?
A: Its value is 8,901 ± 2,014 cpm.

Q: And the “stimulation index (S.I.)” value ([2]; antigen: PLP, FTS-treated EAE mice)?
A: The value was 2.1.

Q: What about the “proliferative response” value ([2]; antigen: PPD) of the same compound?
A: Its value is 27,342 ± 3,627 cpm.

Q: And the “stimulation index (S.I.)” value ([2]; antigen: PPD, FTS-treated EAE mice)?
A: Its value is 6.4.

Q: What about the “proliferative response” value ([2]; antigen: none) of the same compound?
A: Its value is 4,266 ± 508 cpm.

Q: What about the “reduction in response to myelin specific antigens” value ([2]; ex vivo, FTS-treated EAE mice) of the same compound?
A: Its value is greater than 78%.

Q: What about the “proliferative response” value ([2]; mitogen: ConA) of the same compound?
A: Its value is 86,870 ± 7,483 cpm.

Q: And the “stimulation index (S.I.)” value ([2]; mitogen: ConA, FTS-treated EAE mice)?
A: The value was 20.4.

Q: What about the “proliferative response” value ([2]; mitogen: LPS) of the same compound?
A: The value was 45,196 ± 4,246 cpm.

Q: What about the “stimulation index (S.I.)” value ([2]; mitogen: LPS, FTS-treated EAE mice) of the same compound?
A: The value was 10.6.

Q: What about the “proportion of lymphocytes expressing CD3” value [3] of the same compound?
A: The value was 94.2 ± 2.7.

Q: And the “proportion of lymphocytes expressing CD4” value [3]?
A: Its value is 51.6 ± 1.9.

Q: What about the “proportion of lymphocytes expressing CD8” value [3] of the same compound?
A: The value was 26.2 ± 9.2.

Q: And the “proportion of lymphocytes expressing CD62L” value [3]?
A: The value was 67.1 ± 7.3.

Q: What about the “proportion of lymphocytes expressing IA-k” value [3] of the same compound?
A: The value was 28.3 ± 3.2.

Q: What about the “proportion of lymphocytes expressing Vb17” value [3] of the same compound?
A: The value was 11.3 ± 2.1.

Q: What about the “clinical course of CR-EAE (FIG. 2)” value (CR-EAE in SJL/J mice; FTS 5 mg/kg/day from day of cell transfer) of the same compound?
A: The value was “milder form of CR-EAE”.

Q: And the “mortality in CR-EAE” value (CR-EAE in SJL/J mice; FTS 5 mg/kg/day, vehicle group 30%)?
A: Its value is “none of them died”.

Q: And the “total relapses of the paralytic disease” value (CR-EAE in SJL/J mice; follow-up 2-3 months, n=7, control 9)?
A: Its value is 5.

Q: What about the spleen weight (MRL/lpr mice [4]; MRL/++ mice, untreated 0.13±0.01) of the same compound?
A: Its spleen weight is 0.19 ± 0.03 g.

Q: What about the “lymphadenopathy (palpation score)” value (MRL/lpr mice [4]; MRL/lpr mice) of the same compound?
A: The value was “significantly delayed; also recorded: significantly less”.

Q: And the “weight of excised lymph nodes” value (MRL/lpr mice [4]; MRL/lpr mice)?
A: The value was “significant effect of FTS; also recorded: significantly less”.

Q: What about the spleen weight (MRL/lpr mice [4]; MRL/lpr mice, 17 weeks, mean±SE, untreated 0.54±0.04) of the same compound?
A: The spleen weight was 0.41 ± 0.04 g.

Q: What about the toxicity (MRL/lpr and MRL/++ mice) of the same compound?
A: The toxicity was “no significant toxicity”.

Q: What about the “lymphadenopathy and lymphocyte proliferation” value (MRL/lpr mice [5]; MRL/lpr mice) of the same compound?
A: Its value is “normalized”.

Q: What about the “weakness as measured by grip strength on a horizontal bar” value (MRL/lpr mice [5]; MRL/lpr mice) of the same compound?
A: The value was “normalized by FTS treatment”.

Q: And the “proteinuria (dip-sticks, FIG. 15)” value (MRL/lpr mice [5]; MRL/lpr mice treated daily)?
A: Its value is “did not develop significant proteinuria”.

Q: What about the “Fibrotic septa (0-3)” value [6, 9] of the same compound?
A: The value was 0.

Q: What about the “Nodule formation (0-3)” value [6, 9] of the same compound?
A: The value was 0.

Q: And the “Fibrotic septa (0-3)” value [6, 10]?
A: Its value is 0.9±0.5.

Q: What about the “Nodule formation (0-3)” value [6, 10] of the same compound?
A: Its value is 0.7 ± 0.6.

Q: What about the AST [7] of the same compound?
A: Its AST is 2996 ± 364 IU/l.

Q: What about the “Blood Ammonia” value [7] of the same compound?
A: The value was 8.9 ± 2.3 µg/mL.

Q: And the “Hepatic inflammation and cell necrosis (score of 0-3)” value [7]?
A: The value was 2.5 ± 0.6.
